What was measured:
[1] = biological target: T1, Adrenergic receptor alpha-2 (Rattus norvegicus, UniProt P22086+P19328+P22909); assay: Evaluated for affinity at Alpha-2 adrenergic receptor of rat brain using [3H]rauwolscine as radioligand in radioligand binding assay
T1 sequence (P22086 whole entry): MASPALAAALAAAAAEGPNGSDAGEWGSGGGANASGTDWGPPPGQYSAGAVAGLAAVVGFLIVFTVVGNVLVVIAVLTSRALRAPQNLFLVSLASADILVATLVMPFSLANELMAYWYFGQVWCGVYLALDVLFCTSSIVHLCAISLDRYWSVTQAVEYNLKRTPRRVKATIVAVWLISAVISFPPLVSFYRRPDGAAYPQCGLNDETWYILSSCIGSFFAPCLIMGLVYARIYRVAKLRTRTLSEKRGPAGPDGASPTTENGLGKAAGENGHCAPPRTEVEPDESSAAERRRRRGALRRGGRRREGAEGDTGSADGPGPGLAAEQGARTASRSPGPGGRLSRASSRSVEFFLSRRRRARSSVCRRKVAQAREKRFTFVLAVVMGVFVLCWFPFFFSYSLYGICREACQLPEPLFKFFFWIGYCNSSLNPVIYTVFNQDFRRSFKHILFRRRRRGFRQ
T1 sequence (P19328 whole entry): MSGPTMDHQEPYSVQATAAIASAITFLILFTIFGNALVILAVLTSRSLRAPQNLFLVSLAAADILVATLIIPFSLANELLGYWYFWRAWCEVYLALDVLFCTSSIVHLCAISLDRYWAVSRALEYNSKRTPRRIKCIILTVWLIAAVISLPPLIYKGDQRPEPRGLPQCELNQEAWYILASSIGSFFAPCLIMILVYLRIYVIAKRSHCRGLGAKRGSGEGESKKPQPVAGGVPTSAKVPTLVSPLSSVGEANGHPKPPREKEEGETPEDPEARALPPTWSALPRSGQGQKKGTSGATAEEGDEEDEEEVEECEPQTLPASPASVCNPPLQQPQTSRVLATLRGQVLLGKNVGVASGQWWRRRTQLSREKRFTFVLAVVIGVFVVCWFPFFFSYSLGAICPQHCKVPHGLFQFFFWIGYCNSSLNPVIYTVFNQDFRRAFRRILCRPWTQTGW
T1 sequence (P22909 whole entry): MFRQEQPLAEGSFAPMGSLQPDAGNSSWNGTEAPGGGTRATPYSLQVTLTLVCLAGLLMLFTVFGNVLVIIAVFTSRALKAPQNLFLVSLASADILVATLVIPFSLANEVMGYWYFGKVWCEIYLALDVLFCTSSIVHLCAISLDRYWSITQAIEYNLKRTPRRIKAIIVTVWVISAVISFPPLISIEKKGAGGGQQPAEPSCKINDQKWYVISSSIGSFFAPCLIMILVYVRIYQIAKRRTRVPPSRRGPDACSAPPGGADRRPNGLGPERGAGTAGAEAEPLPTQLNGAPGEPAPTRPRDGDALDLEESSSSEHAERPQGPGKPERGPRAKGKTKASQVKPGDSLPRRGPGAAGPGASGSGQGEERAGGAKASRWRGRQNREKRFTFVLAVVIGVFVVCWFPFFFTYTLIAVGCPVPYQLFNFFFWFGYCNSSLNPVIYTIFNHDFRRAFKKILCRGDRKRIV

[2] = species on record: Rattus norvegicus; assay: Evaluated for inhibition of dopamine, biogenic amine reuptake in synaptosomal rat brain preparations; assay type: functional
[3] = biological target: T2, Adrenergic receptor alpha-1 (Rattus norvegicus, UniProt P15823+P23944+P43140); assay: Evaluated for affinity at Alpha-1 adrenergic receptor of rat brain using [3H]prazosin as radioligand in radioligand binding assay
T2 sequence (P15823 whole entry): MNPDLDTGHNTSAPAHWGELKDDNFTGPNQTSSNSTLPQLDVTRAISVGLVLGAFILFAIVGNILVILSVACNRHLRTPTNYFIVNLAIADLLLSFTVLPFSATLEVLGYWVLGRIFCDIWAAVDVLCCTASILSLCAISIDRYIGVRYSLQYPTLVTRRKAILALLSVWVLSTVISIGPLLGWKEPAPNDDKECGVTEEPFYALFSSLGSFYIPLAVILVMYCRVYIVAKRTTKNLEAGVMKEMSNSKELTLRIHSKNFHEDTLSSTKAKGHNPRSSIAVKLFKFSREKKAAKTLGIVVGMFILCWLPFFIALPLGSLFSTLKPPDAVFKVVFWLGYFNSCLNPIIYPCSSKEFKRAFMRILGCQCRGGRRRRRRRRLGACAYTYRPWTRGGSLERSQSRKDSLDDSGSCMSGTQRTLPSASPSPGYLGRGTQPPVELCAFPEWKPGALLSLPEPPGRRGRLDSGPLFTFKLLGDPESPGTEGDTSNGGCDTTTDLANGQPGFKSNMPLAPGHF
T2 sequence (P23944 whole entry): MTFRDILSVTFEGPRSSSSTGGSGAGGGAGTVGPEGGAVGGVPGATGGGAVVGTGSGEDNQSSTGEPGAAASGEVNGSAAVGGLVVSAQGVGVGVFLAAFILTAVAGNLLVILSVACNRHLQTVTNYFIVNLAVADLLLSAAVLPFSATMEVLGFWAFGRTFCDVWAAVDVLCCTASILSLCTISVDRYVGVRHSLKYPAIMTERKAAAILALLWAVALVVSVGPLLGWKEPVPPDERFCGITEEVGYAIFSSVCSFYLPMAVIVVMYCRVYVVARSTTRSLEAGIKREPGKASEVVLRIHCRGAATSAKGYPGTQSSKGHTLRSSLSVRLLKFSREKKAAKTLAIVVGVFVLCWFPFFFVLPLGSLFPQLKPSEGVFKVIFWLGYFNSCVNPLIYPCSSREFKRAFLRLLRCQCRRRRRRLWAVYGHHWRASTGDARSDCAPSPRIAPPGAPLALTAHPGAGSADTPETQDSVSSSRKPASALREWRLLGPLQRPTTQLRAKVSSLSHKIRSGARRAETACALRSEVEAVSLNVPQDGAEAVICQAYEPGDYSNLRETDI
T2 sequence (P43140 whole entry): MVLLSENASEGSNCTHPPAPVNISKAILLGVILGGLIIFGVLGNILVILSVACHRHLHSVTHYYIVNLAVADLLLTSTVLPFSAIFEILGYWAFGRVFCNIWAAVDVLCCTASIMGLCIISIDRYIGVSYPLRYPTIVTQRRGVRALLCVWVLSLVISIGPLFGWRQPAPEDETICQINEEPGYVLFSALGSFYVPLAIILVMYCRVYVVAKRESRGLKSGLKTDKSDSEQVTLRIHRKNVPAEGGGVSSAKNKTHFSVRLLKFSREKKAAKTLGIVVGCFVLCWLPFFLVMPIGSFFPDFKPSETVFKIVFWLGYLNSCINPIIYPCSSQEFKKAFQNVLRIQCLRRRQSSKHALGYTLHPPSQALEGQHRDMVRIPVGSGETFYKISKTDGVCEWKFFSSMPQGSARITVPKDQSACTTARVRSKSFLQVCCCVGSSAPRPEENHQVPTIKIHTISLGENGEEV

[4] = species on record: Rattus norvegicus; assay: Evaluated for inhibition of norepinephrine, biogenic amine reuptake in synaptosomal rat brain preparations; assay type: functional
[5] = species on record: Rattus norvegicus; assay: […] reversal of passive avoidance deficit in olfactory bulbectomized rats; assay type: functional
[6] = species on record: Rattus norvegicus; assay: […] p-chloroamphetamine (PCA) induced hyperactivity in rats; assay type: functional
[7] = species on record: Rattus norvegicus; assay: Evaluated for inhibition of 5-Hydroxytryptamine, biogenic amine reuptake in synaptosomal rat brain preparations; assay type: functional
[8] = biological target: Serotonin 2 (5-HT2) receptor (Rattus norvegicus, UniProt P30994+P08909+P14842); assay: Compound was evaluated for its binding affinity to 5-hydroxytryptamine 2 receptor in rat cortex using [3H]ketanserin radioligand assay
[9] = biological target: D(1A) dopamine receptor (Rattus norvegicus, UniProt P18901); assay: Compound was evaluated for its binding affinity to Dopamine receptor D1 in rat striatum using [3H]- SCH-23390 radioligand assay; assay type: tissue-based
Chain of D(1A) dopamine receptor (P18901 whole entry): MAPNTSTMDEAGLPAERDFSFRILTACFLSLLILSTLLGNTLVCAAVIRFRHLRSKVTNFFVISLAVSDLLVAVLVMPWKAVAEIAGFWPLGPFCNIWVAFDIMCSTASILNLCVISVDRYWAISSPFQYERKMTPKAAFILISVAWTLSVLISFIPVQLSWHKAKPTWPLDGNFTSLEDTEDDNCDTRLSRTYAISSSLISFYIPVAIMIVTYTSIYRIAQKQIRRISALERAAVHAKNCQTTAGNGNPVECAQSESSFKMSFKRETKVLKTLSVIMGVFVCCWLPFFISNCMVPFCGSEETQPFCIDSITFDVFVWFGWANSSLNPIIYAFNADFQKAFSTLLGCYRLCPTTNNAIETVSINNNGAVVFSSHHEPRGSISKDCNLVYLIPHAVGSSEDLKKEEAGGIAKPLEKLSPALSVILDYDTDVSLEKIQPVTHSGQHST

[10] = biological target: D(2) dopamine receptor (Rattus norvegicus, UniProt P61169); assay: Compound was evaluated for its binding affinity to Dopamine receptor D2 in rat brain using [3H]- spiroperidol radioligand assay; assay type: tissue-based
Chain of D(2) dopamine receptor (P61169 whole entry): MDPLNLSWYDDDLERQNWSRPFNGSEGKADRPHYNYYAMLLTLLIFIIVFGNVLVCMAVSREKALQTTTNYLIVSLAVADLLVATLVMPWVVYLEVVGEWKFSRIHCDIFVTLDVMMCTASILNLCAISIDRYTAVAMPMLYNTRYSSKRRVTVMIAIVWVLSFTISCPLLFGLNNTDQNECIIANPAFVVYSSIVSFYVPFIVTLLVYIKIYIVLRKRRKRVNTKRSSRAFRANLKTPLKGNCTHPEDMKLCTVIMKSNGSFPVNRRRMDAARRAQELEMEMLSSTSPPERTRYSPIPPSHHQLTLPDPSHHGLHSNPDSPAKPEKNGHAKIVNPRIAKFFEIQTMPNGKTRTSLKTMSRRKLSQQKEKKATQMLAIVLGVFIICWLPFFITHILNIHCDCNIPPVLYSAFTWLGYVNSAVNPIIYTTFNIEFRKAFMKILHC

[11] = biological target: T1, Adrenergic receptor alpha-2; assay: Evaluated for affinity at Alpha-2 adrenergic receptor of rat cortex using [3H]rauwolscine as radioligand in radioligand binding assay
[12] = biological target: Serotonin 1 (5-HT1) receptor (Rattus norvegicus, UniProt P28564+P30940+P19327+P28565); assay: Compound was evaluated for its binding affinity to 5-hydroxytryptamine 1 receptor in rat brain using [3H]HT radioligand assay; assay type: tissue-based
[13] = biological target: Beta-1 adrenergic receptor (Rattus norvegicus, UniProt P18090); assay: Compound was evaluated for its binding affinity to beta-1 receptor in rat brain using [3H]- DHA radioligand assay; assay type: tissue-based
Chain of Beta-1 adrenergic receptor (P18090 whole entry): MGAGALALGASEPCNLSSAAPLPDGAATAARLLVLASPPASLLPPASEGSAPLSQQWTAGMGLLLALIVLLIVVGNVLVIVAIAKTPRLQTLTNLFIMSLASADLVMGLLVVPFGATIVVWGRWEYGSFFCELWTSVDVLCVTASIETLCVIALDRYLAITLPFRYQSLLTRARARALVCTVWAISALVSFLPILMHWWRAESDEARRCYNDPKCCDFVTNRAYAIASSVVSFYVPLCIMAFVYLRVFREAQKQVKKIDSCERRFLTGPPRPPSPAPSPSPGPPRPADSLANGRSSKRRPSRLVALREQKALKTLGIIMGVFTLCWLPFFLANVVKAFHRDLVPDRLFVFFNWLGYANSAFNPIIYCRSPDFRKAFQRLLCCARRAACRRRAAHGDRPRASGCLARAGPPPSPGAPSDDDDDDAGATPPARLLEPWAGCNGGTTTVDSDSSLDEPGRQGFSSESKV

SMILES	Ki [1] [nM]	IC50 [2] [nM]	Ki [3] [nM]	IC50 [4] [nM]	ED50 [5] [mg/kg]	ED50 [6] [mg/kg]	IC50 [7] [nM]	Ki [8] [nM]	Ki [9] [nM]	Ki [10] [nM]	Ki [11] [nM]	Ki [12] [nM]	Ki [13] [nM]
COc1cccc2c1CCC[C@@H]2CN(C)CCc1ccc2ccoc2c1	110	4750	241	476	–	–	–	–	–	–	–	–	–
Fc1ccc([C@@H]2CCNC[C@H]2COc2ccc3c(c2)OCO3)cc1 [PAROXETINE]	6310	7620	5320	160	–	–	–	–	–	–	–	–	–
CNCCC(Oc1ccc(C(F)(F)F)cc1)c1ccccc1 (stereo unspecified) [FLUOXETINE]	–	16200	–	3280	12.1	11.7	308	–	–	–	–	–	–
COC(=O)[C@H]1[C@H]2C[C@H]3c4[nH]c5ccccc5c4CCN3C[C@H]2CC[C@@H]1O [RAUWOLSCINE]	–	> 10000	–	> 10000	–	–	–	–	–	–	–	–	–
COc1cccc2c1CCC[C@H]2CN(C)CCc1ccc2ccoc2c1	–	2940	110	865	7.1	13.3	–	144	744	52	2.01	2970	836
